The record followed here is patent US11739350B2 (priority 2018, dated 2023).

The subject of data set [1] is 786-0.
The test system of data set [2] is Patient 25.
Data set [3] has as its system 786-0 cells.
The test system of data set [4] is BXPC3 cells.
For data set [5], the system named is patient-derived pancreatic cancer cell line (Patient 25).
Data set [6] relates to 4T1.
Data set [7] concerns BxPC3.

On to GSK126, for which the “Cell viability (%) relative to mock vehicle-treated cells (title: GSK126-induced cytotoxicity (%))” value turned out to be 111.99% in data set [1], 80.82% in data set [5], 113.57% in data set [6] and 96.07% in data set [7]. For the same substance, the results for the “Cell viability as a percentage of control (cells treated with mock EVs and vehicle control)” value in data set [2], in data set [3] and in data set [4] were 64.14 percentage of control, 98.35 percentage of control and 90.78 percentage of control, respectively.
